The text below walks through data of ChEMBL document CHEMBL1136464, “Array synthesis of novel lipodepsipeptide” (Bioorg Med Chem Lett, 2003).

Each structure is given as a SMILES string. Values after ≈ are worked out from the molar mass of the structure shown.

Series [1] relates to Enterococcus faecium. In words: Antibacterial activity against Enterococcus faecium ATCC 49452. Type of series: functional.
The subject of series [2] is Enterococcus faecalis. Description: Antibacterial activity against Enterococcus faecalis ATCC 6569. Type of series: functional.
Series [3] is described as follows: Total plasma clearance in mice. Type of series: ADME, organism-based. The following applies: mouse.
The nature of series [4]: Half-life in mice. Type of series: ADME, organism-based. Particulars: mouse, in vivo.
Series [5] can be described thus: Vd in mice. Type of series: ADME, organism-based. Particulars: mouse, in vivo.
Series [6] has as its system Staphylococcus aureus. Description: Antibacterial activity against methicillin susceptible staphylococcus aureus ATCC 29213. Type of series: functional.
In series [7] the test system is Staphylococcus aureus. In words: Antibacterial activity against methicillin-resistant staphylococcus aureus ATCC 43300. Type of series: functional.
The test system of series [8] is Enterococcus faecium. Description: Antibacterial activity against Enterococcus faecium ATCC 49452 at 10 % serum. Type of series: functional. Particulars: ATCC 49452, Serum.
Series [9] relates to Staphylococcus aureus. In words: Antibacterial activity against methicillin-resistant staphylococcus aureus ATCC 43300 at 0 % serum. Type of series: functional.
Series [10] deals with Enterococcus faecalis. Description: Antibacterial activity against Enterococcus faecalis ATCC 6569 at 10 % serum. The following applies: ATCC 6569, Serum. Type of series: functional.
The subject of series [11] is Enterococcus faecium. In words: Antibacterial activity against Enterococcus faecium ATCC 49452 at 0 % serum. Type of series: functional.
Series [12] relates to Enterococcus faecalis. Description: Antibacterial activity against Enterococcus faecalis ATCC 6569 at 0 % serum. Type of series: functional.
The test system of series [13] is Staphylococcus aureus. In words: Antibacterial activity against methicillin-resistant staphylococcus aureus ATCC 43300 at 10 % serum. Type of series: functional.
The species entered for series [14] is Mus musculus. In words: Protective dose against methicillin-resistant staphylococcus aureus ATCC 43300 was determined in mice. Type of series: functional. Particulars: read-out: PD50.
The subject of series [15] is Staphylococcus aureus. Description: Antibacterial activity against methicillin susceptible staphylococcus aureus ATCC 29213 at 0 % serum. Type of series: functional.
Series [16] has as its system Staphylococcus aureus. In words: Antibacterial activity against methicillin susceptible staphylococcus aureus ATCC 29213 at 10 % serum. Type of series: functional.
Series [17] relates to Enterococcus faecium. Description: Antibacterial activity against Enterococcus faecium ATCC 49452 at 0 % serum in mice. Type of series: functional.
In series [18] the test system is Staphylococcus aureus. In words: Antibacterial activity against methicillin-resistant staphylococcus aureus ATCC 43300 at 10 % serum in mice. Type of series: functional.
Series [19] deals with Enterococcus faecalis. In words: Antibacterial activity against Enterococcus faecalis ATCC 6569 at 0 % serum in mice. Type of series: functional.
Series [20] has as its system Enterococcus faecalis. Description: Antibacterial activity against Enterococcus faecalis ATCC 6569 at 10 % serum in mice. Type of series: functional.
For series [21], the system named is Enterococcus faecium. Description: Antibacterial activity against Enterococcus faecium ATCC 49452 at 10 % serum in mice. Type of series: functional. The following applies: ATCC 49452, Serum.
For series [22], the system named is Staphylococcus aureus. In words: Antibacterial activity against methicillin-resistant staphylococcus aureus ATCC 43300 at 0 % serum in mice. Type of series: functional.

Broadly, the MIC is the least concentration at which growth counts as inhibited. Take `CCCCCCCCCC(=O)N[C@@H](Cc1c[nH]c2ccccc12)C(=O)N[C@H](CC(N)=O)C(=O)N[C@@H](CCO)C(=O)N[C@@H]1C(=O)NCC(=O)N[C@@H](CCCNC(=O)C(N)Cc2c[nH]c3ccc(F)cc23)C(=O)N[C@@H](CC(=O)O)C(=O)N[C@H](C)C(=O)N[C@@H](CC(=O)O)C(=O)NCC(=O)N[C@H](CO)C(=O)N[C@@H]([C@H](C)CC(=O)O)C(=O)N[C@@H](CC(=O)c2ccccc2N)C(=O)O[C@@H]1C` (stereo partly specified): the MIC in series [1] came out at 12.5 µg/mL (≈ 6.9 µM); in series [2], 3.1 µg/mL (≈ 1.71 µM).
The term clearance denotes a measure of how efficiently the substance is removed, as volume per time. For orientation: half-life means how long it takes for the measured level to halve. A low value points to fast loss. What is called Vd is a proportionality between amount in the body and measured concentration, not a real space. `CCCCCCCCCC(=O)N[C@@H](Cc1c[nH]c2ccccc12)C(=O)N[C@H](CC(N)=O)C(=O)N[C@@H](CC(=O)O)C(=O)N[C@@H]1C(=O)NCC(=O)N[C@@H](CCCNCc2ccc(-c3ccccc3)cc2)C(=O)N[C@@H](CC(=O)O)C(=O)N[C@H](C)C(=O)N[C@@H](CC(=O)O)C(=O)NCC(=O)N[C@H](CO)C(=O)N[C@@H]([C@H](C)CC(=O)O)C(=O)N[C@@H](CC(=O)c2ccccc2N)C(=O)O[C@@H]1C` [listing 1 of 2 here] showed a clearance in series [3] of 0.157 mL/min/kg. This compound gave a half-life in series [4] of 7.9 h. The compound further registered a Vd in [5] of 0.107 L/kg.
For `CCCCCCCCCC(=O)N[C@@H](Cc1c[nH]c2ccccc12)C(=O)N[C@H](CC(N)=O)C(=O)N[C@@H](CCO)C(=O)N[C@@H]1C(=O)NCC(=O)N[C@@H](CCCNC(=O)c2ccccc2)C(=O)N[C@@H](CC(=O)O)C(=O)N[C@H](C)C(=O)N[C@@H](CC(=O)O)C(=O)NCC(=O)N[C@H](CO)C(=O)N[C@@H]([C@H](C)CC(=O)O)C(=O)N[C@@H](CC(=O)c2ccccc2N)C(=O)O[C@@H]1C`, the MIC in [1] was 25 µg/mL (≈ 14.6 µM); in series [2], 25 µg/mL (≈ 14.6 µM); in [6], 12.5 µg/mL (≈ 7.31 µM); in series [7] it was 6.25 µg/mL (≈ 3.65 µM).
Take `CCCCCCCCCC(=O)N[C@@H](Cc1c[nH]c2ccccc12)C(=O)N[C@H](CC(N)=O)C(=O)N[C@@H](CCO)C(=O)N[C@@H]1C(=O)NCC(=O)N[C@@H](CCCNC(=O)c2ccccc2N)C(=O)N[C@@H](CC(=O)O)C(=O)N[C@H](C)C(=O)N[C@@H](CC(=O)O)C(=O)NCC(=O)N[C@H](CO)C(=O)N[C@@H]([C@H](C)CC(=O)O)C(=O)N[C@@H](CC(=O)c2ccccc2N)C(=O)O[C@@H]1C`: the MIC was determined as 12.5 µg/mL (≈ 7.24 µM) in [1], 3.1 µg/mL (≈ 1.8 µM) in series [2], 1.56 µg/mL (≈ 0.904 µM) in series [6] and 0.78 µg/mL (≈ 0.452 µM) in [7].
As to `CCCCCCCCCC(=O)N[C@@H](Cc1c[nH]c2ccccc12)C(=O)N[C@H](CC(N)=O)C(=O)N[C@@H](CC(=O)O)C(=O)N[C@@H]1C(=O)NCC(=O)N[C@@H](CCCNCc2ccc(-c3ccccc3)cc2)C(=O)N[C@@H](CC(=O)O)C(=O)N[C@H](C)C(=O)N[C@@H](CC(=O)O)C(=O)NCC(=O)N[C@H](CO)C(=O)N[C@@H]([C@H](C)CC(=O)O)C(=O)N[C@@H](CC(=O)c2ccccc2N)C(=O)O[C@@H]1C` [listing 2 of 2 here], the MIC in series [8] was 25 µg/mL (≈ 14 µM); in [9], 0.2 µg/mL (≈ 0.112 µM); in series [10], 12.5 µg/mL (≈ 7 µM); in [11], 1.56 µg/mL (≈ 0.873 µM); in [12], 1.56 µg/mL (≈ 0.873 µM); in series [13], 1.56 µg/mL (≈ 0.873 µM). Besides, the MIC amounted to 0.39 µg/mL (≈ 0.218 µM) in series [15] and 3.13 µg/mL (≈ 1.75 µM) in [16]. In series [14], the ED50 worked out at 1.04 mg/kg.
In the case of `CCCCCCCCCC(=O)N[C@@H](Cc1c[nH]c2ccccc12)C(=O)N[C@H](CC(N)=O)C(=O)N[C@@H](CC(=O)O)C(=O)N[C@@H]1C(=O)NCC(=O)N[C@@H](CCCN)C(=O)N[C@@H](CC(=O)O)C(=O)N[C@H](C)C(=O)N[C@@H](CC(=O)O)C(=O)NCC(=O)N[C@H](CO)C(=O)N[C@@H]([C@H](C)CC(=O)O)C(=O)N[C@@H](CC(=O)c2ccccc2N)C(=O)O[C@@H]1C`, the MIC in series [17] came out at 1.56 µg/mL (≈ 0.963 µM); in series [18] it was 0.78 µg/mL (≈ 0.481 µM); in series [19], 1.56 µg/mL (≈ 0.963 µM); in [20], 3.13 µg/mL (≈ 1.93 µM); in series [21] it was 1.56 µg/mL (≈ 0.963 µM); in [22], 0.78 µg/mL (≈ 0.481 µM).
With `CCCCCCCCCC(=O)N[C@@H](Cc1c[nH]c2ccccc12)C(=O)N[C@H](CC(N)=O)C(=O)N[C@@H](CCO)C(=O)N[C@@H]1C(=O)NCC(=O)N[C@@H](CCCNCc2ccc(C#N)cc2)C(=O)N[C@@H](CC(=O)O)C(=O)N[C@H](C)C(=O)N[C@@H](CC(=O)O)C(=O)NCC(=O)N[C@H](CO)C(=O)N[C@@H]([C@H](C)CC(=O)O)C(=O)N[C@@H](CC(=O)c2ccccc2N)C(=O)O[C@@H]1C`, the MIC in series [8] is 12.5 µg/mL (≈ 7.26 µM); in [9], 0.78 µg/mL (≈ 0.453 µM); in series [10] it was 6.25 µg/mL (≈ 3.63 µM); in series [11], 6.25 µg/mL (≈ 3.63 µM); in series [12], 6.25 µg/mL (≈ 3.63 µM); in [13], 0.78 µg/mL (≈ 0.453 µM). Further, the MIC in series [15] and in series [16] was 0.78 µg/mL (≈ 0.453 µM) each time.
